Results from ChEMBL document CHEMBL3045725, “Synthesis and antimicrobial activity of some (3-phenyl-5-(1-phenyl-3-aryl-1H-pyrazol-4-yl)-4,5-dihydro-1H-pyrazol-1-yl)(pyridin-4-yl)methanones: new derivatives of 1,3,5-trisubstituted pyrazolines” (2013).
≈ marks a conversion by molar mass, not a printed value.

Assays:
Format in all cases: functional
Aspergillus flavus = test: Antifungal activity against Aspergillus flavus assessed as growth inhibition after 24 hr by NCCLS broth microdilution method
Aspergillus niger = test: Antifungal activity against Aspergillus niger assessed as growth inhibition after 24 hr by NCCLS broth microdilution method
Candida tropicalis = test: Antifungal activity against Candida tropicalis assessed as growth inhibition after 24 hr by NCCLS broth microdilution method
Candida albicans = test: Antifungal activity against Candida albicans assessed as growth inhibition after 24 hr by NCCLS broth microdilution method
Pseudomonas aeruginosa = test: Antibacterial activity against Pseudomonas aeruginosa assessed as growth inhibition after 24 hr by NCCLS broth microdilution method
Escherichia coli = test: Antibacterial activity against Escherichia coli assessed as growth inhibition after 24 hr by NCCLS broth microdilution method
Bacillus subtilis = test: Antibacterial activity against Bacillus subtilis assessed as growth inhibition after 24 hr by NCCLS broth microdilution method
Bacillus pumilus = test: Antibacterial activity against Bacillus pumilus assessed as growth inhibition after 24 hr by NCCLS broth microdilution method
Staphylococcus aureus = test: Antibacterial activity against Staphylococcus aureus assessed as growth inhibition after 24 hr by NCCLS broth microdilution method

| SMILES | MIC (Aspergillus flavus) [µg/mL] | MIC (Aspergillus niger) [µg/mL] | MIC (Candida tropicalis) [µg/mL] | MIC (Candida albicans) [µg/mL] | MIC (Pseudomonas aeruginosa) [µg/mL] | MIC (Escherichia coli) [µg/mL] | MIC (Bacillus subtilis) [µg/mL] | MIC (Bacillus pumilus) [µg/mL] | MIC (Staphylococcus aureus) [µg/mL] |
| --- | --- | --- | --- | --- | --- | --- | --- | --- | --- |
| COc1ccc(-c2nn(-c3ccccc3)cc2C2CC(c3ccccc3)=NN2C(=O)c2ccncc2)cc1 (racemic) | 50 (≈ 100 µM) | 50 (≈ 100 µM) | 12.5 (≈ 25 µM) | 12.5 (≈ 25 µM) | 12.5 (≈ 25 µM) | 6.25 (≈ 12.5 µM) | 6.25 (≈ 12.5 µM) | 6.25 (≈ 12.5 µM) | 6.25 (≈ 12.5 µM) |
| COc1ccccc1-c1nn(-c2ccccc2)cc1C1CC(c2ccccc2)=NN1C(=O)c1ccncc1 (racemic) | 50 (≈ 100 µM) | 50 (≈ 100 µM) | 6.25 (≈ 12.5 µM) | 6.25 (≈ 12.5 µM) | 6.25 (≈ 12.5 µM) | 6.25 (≈ 12.5 µM) | 6.25 (≈ 12.5 µM) | 6.25 (≈ 12.5 µM) | 6.25 (≈ 12.5 µM) |
| Cc1ccc(-c2nn(-c3ccccc3)cc2C2CC(c3ccccc3)=NN2C(=O)c2ccncc2)cc1 (racemic) | 100 (≈ 207 µM) | 100 (≈ 207 µM) | 50 (≈ 103 µM) | 25 (≈ 51.7 µM) | 25 (≈ 51.7 µM) | 12.5 (≈ 25.8 µM) | 12.5 (≈ 25.8 µM) | 12.5 (≈ 25.8 µM) | 6.25 (≈ 12.9 µM) |
| O=C(c1ccncc1)N1N=C(c2ccccc2)CC1c1cn(-c2ccccc2)nc1-c1ccc(F)cc1 (racemic) | 200 (≈ 410 µM) | 200 (≈ 410 µM) | 50 (≈ 103 µM) | 50 (≈ 103 µM) | 12.5 (≈ 25.6 µM) | 12.5 (≈ 25.6 µM) | 12.5 (≈ 25.6 µM) | 25 (≈ 51.3 µM) | 6.25 (≈ 12.8 µM) |
| O=C(c1ccncc1)N1N=C(c2ccccc2)CC1c1cn(-c2ccccc2)nc1-c1ccc(Cl)cc1 (racemic) | 200 (≈ 397 µM) | > 200 | 100 (≈ 198 µM) | 100 (≈ 198 µM) | 25 (≈ 49.6 µM) | 25 (≈ 49.6 µM) | 25 (≈ 49.6 µM) | 25 (≈ 49.6 µM) | 12.5 (≈ 24.8 µM) |
| O=C(c1ccncc1)N1N=C(c2ccccc2)CC1c1cn(-c2ccccc2)nc1-c1ccc(Br)cc1 (racemic) | 200 (≈ 365 µM) | > 200 | 100 (≈ 182 µM) | 50 (≈ 91.2 µM) | 50 (≈ 91.2 µM) | 50 (≈ 91.2 µM) | 25 (≈ 45.6 µM) | 25 (≈ 45.6 µM) | 12.5 (≈ 22.8 µM) |
| O=C(c1ccncc1)N1N=C(c2ccccc2)CC1c1cn(-c2ccccc2)nc1-c1ccccc1 (racemic) | > 200 | 100 (≈ 213 µM) | 200 (≈ 426 µM) | 200 (≈ 426 µM) | 50 (≈ 106 µM) | 50 (≈ 106 µM) | 50 (≈ 106 µM) | 50 (≈ 106 µM) | 25 (≈ 53.2 µM) |
| O=C(O)c1cn(C2CC2)c2cc(N3CCNCC3)c(F)cc2c1=O [CIPROFLOXACIN] |  |  |  |  | 3.12 (≈ 9.43 µM) | 3.12 (≈ 9.43 µM) | 3.12 (≈ 9.43 µM) | 3.12 (≈ 9.43 µM) | 3.12 (≈ 9.43 µM) |
| OC(Cn1cncn1)(Cn1cncn1)c1ccc(F)cc1F [FLUCONAZOLE] | 12.5 (≈ 40.8 µM) | 12.5 (≈ 40.8 µM) | 6.25 (≈ 20.4 µM) | 3.12 (≈ 10.2 µM) |  |  |  |  |  |
